Source: PMC9569450, “Dual Effect of Tryptamine on Prostate Cancer Cell Growth Regulation: A Pilot Study” (International Journal of Molecular Sciences, 2022)
Read-outs that look alike come from different tables or passages of the source.

Experiments:
RWPE-1 cells = test: MTT cell proliferation assay, RWPE-1; type: cell-based; details: for IC50: MTT, 48 h treatment in FBS-free medium, read-out: IC50 Value (Mean ± SD mM) RWPE-1
Description: (§1) PC-3, LNCaP, RWPE-1, HepG2, A549, and PANC-1 cells were purchased from the National Collection of Authenticated Cell Cultures (Shanghai, China). […] All the above cell cultures were supplied with 10% fetal bovine serum and 1% penicillin-streptomycin. RWPE-1 cells were cultured in keratinocyte serum-free medium (K-SFM, Gibco, New York, NY, USA) supplemented with 50 mg/L bovine pituitary extract and 5 μg/L epidermal growth factor (EGF). All cell lines were grown in a humidified atmosphere of 5% CO2 at 37 °C.
(§2) Cells were seeded in 100 μL complete medium in a 96-well plate, at a density of 10,000 cells/well for LNCaP and 5000 cells/well for other cells. Cells were pre-incubated for 24 h to allow for adherence before removal of complete medium and treatment with various concentrations of compounds in fetal bovine serum (FBS)-free medium for 48 h. After treatment, 20 μL/well MTT (5 mg/mL) was added and incubated for 3–4 h at 37 °C, and then 100 μL/well DMSO was added for MTT assay. The plate was shaken on an orbital shaker for 10 min. Absorbance was measured using a microplate reader at 492 nm for the MTT assay (performed in triplicates). Cell viability was normalized to control. Half inhibitory concentration (IC50) was calculated by SPSS Statistics 17.0. […] The experiments were independently repeated two to three times.

PC-3 cells = test: MTT cell proliferation assay, PC-3; type: cell-based, human; details: read-out: IC50 Value (Mean ± SD mM) PC-3
Description: as §1, §2

LNCaP cells = test: MTT cell proliferation assay, LNCaP; type: cell-based; details: 48 h treatment in FBS-free medium, read-out: IC50 Value (Mean ± SD mM) LNCaP
Description: as §1, §2

A549 cells = test: MTT cell proliferation assay, A549; type: cell-based; details: read-out: IC50 Value (Mean ± SD mM) A549
Description: as §1, §2

HepG2 cells = test: MTT cell proliferation assay, HepG2; type: cell-based; details: read-out: IC50 Value (Mean ± SD mM) HepG2
Description: as §1, §2

PANC-1 cells = test: MTT cell proliferation assay, PANC-1; type: cell-based; details: read-out: IC50 Value (Mean ± SD mM) PANC-1
Description: as §1, §2

[1] = system: PC-3, LNCaP, RWPE-1, A549, PANC-1, and HepG2 cells; test: MTT cell proliferation assay, all cell lines; type: cell-based
Description: (§3) PC-3, LNCaP, RWPE-1, HepG2, A549, and PANC-1 cells were purchased from the National Collection of Authenticated Cell Cultures (Shanghai, China). PC-3 and A549 cells were cultured in F-12K Nutrient Mixture (Gibco, New York, NY, USA), LNCaP in RPMI 1640 (Gibco, New York, NY, USA), PANC-1 in Dulbecco’s Modified Eagle Medium (DMEM, Gibco, New York, NY, USA), and HepG2 in minimal essential medium (MEM, Gibco, New York, NY, USA). All the above cell cultures were supplied with 10% fetal bovine serum and 1% penicillin-streptomycin. RWPE-1 cells were cultured in keratinocyte serum-free medium (K-SFM, Gibco, New York, NY, USA) supplemented with 50 mg/L bovine pituitary extract and 5 μg/L epidermal growth factor (EGF). All cell lines were grown in a humidified atmosphere of 5% CO2 at 37 °C.
(§4) Cells were seeded in 100 μL complete medium in a 96-well plate, at a density of 10,000 cells/well for LNCaP and 5000 cells/well for other cells. Cells were pre-incubated for 24 h to allow for adherence before removal of complete medium and treatment with various concentrations of compounds in fetal bovine serum (FBS)-free medium for 48 h. After treatment, 20 μL/well MTT (5 mg/mL) was added and incubated for 3–4 h at 37 °C, and then 100 μL/well DMSO was added for MTT assay. The plate was shaken on an orbital shaker for 10 min. Absorbance was measured using a microplate reader at 492 nm for the MTT assay (performed in triplicates). Cell viability was normalized to control. Half inhibitory concentration (IC50) was calculated by SPSS Statistics 17.0. The combination index (CI) isobologram equation was used for the quantitative determination of the interaction between two compounds [62]:(1) Combination index CI =CA,x/ICx,A+CB,x/ICx,B where CA,x and CB,x are compound concentrations that […], and ICx,A and ICx,B are compound concentrations that provide the same effect when being used in combination. The experiments were independently repeated two to three times.

PC-3 and LNCaP cells = test: MTT cell proliferation assay, PCa cell lines; type: cell-based; details: Homo sapiens, read-out: IC50 values on PCa cell lines
Description: as §3, §4

[2] = system: A549, HepG2, and PANC-1 cells; test: MTT cell proliferation assay, other three cancer cell lines; type: cell-based; details: A549, HepG2, and PANC-1, text summary
Description: as §1, §2

[3] = system: human castration-resistant PCa cells DU145 and PC3; design: method as in PMID 33945018; details: cited from earlier work
ovarian cancer = system: ovarian cancer; design: method as in PMID 27121207; details: intraperitoneal injections of 10 mg/kg; cited from earlier work
PC-3 xenograft tumors = test: PC-3 xenograft mouse model; type: in vivo; details: 200 mg/kg
Description: Five-week-old male BALB/c nude mice were purchased from Charles River Laboratories (Beijing, China) and raised in a temperature and humidity-controlled environment (25 ± 2 °C, 50% ± 10% humidity) with a standard 12 h light-dark cycle with food and water in cages under germ-free conditions (SCXK2021-0006). All procedures involving animals and their care were approved by the Institutional Animal Care and Use Committee of the Ocean University of China in accordance with institutional and National Institutes of Health guidelines (OUC-SMP-2022-01-01). PC-3 cells (4 × 10^6 dissolved in 150 μL PBS) were injected subcutaneously into the armpit area of each mouse. For the first treatment group, when tumors reached 50 mm^3, 80 mg/kg of tryptamine dissolved in normal saline with 0.1% formic acid was administered intraperitoneally once every other day for 32 days (n = 6). […] The control groups were administrated with the vehicle. The tumor volume (mm^3) was calculated based on the formula:(2) Tumor volume (mm^3)=length×width^2/2

[4] = Homo sapiens, PC-3, 48 h treatment in FBS-free medium
[5] = Homo sapiens, A549, 48 h treatment in FBS-free medium
[6] = Homo sapiens, HepG2, 48 h treatment in FBS-free medium
[7] = Homo sapiens, PANC-1, 48 h treatment in FBS-free medium
[8] = 48 h treatment in FBS-free medium
[9] = all cell lines tested, read-out: IC50 values for all six cell lines tested
[10] = discussion summary, all cancer cell lines tested, read-out: IC50 values in all cancer cell lines tested

Compound | IC50 (RWPE-1 cells; Homo sapiens, RWPE-1) [mM] | IC50 (PC-3 cells; [4]) [mM] | IC50 (LNCaP cells; Homo sapiens, LNCaP) [mM] | IC50 (A549 cells; [5]) [mM] | IC50 (HepG2 cells; [6]) [mM] | IC50 (PANC-1 cells; [7]) [mM] | IC50 [1, 9] [µM] | other results
COc1cc([C@@H]2c3cc4c(cc3[C@@H](O[C@@H]3O[C@@H]5CO[C@@H](C)O[C@H]5[C@H](O)[C@H]3O)[C@H]3COC(=O)[C@H]23)OCO4)cc(OC)c1O [Etoposide, reference compound] | 0.016 ± 0.001 | 0.064 ± 0.001 | 0.032 ± 0.001 | 0.041 ± 0.002 | 0.03 ± 0.001 | 0.042 ± 0.001 |  | 
Nc1c(O)cccc1C(=O)CC(N)C(=O)O (centres unmarked) [3-HK, 3-hydroxykynurenine] |  |  |  |  |  |  | ≤ 900 | IC50 (RWPE-1 cells): 0.36 ± 0.01 mM; IC50 (PC-3 cells; [8]): 0.55 ± 0.01 mM; IC50 (LNCaP cells): 0.29 ± 0.01 mM; IC50 (A549 cells; [8]): 0.29 ± 0.01 mM; IC50 (HepG2 cells; [8]): 0.25 ± 0.01 mM; IC50 (PANC-1 cells; [8]): 0.25 ± 0.01 mM
NCCc1ccccc1 [β-phenylethylamine, reference compound] |  |  |  |  |  |  |  | IC50 (RWPE-1 cells): 2.51 ± 0.19 mM; IC50 (PC-3 cells; [8]): 0.44 ± 0.01 mM; IC50 (LNCaP cells): 0.69 ± 0.06 mM; IC50 (A549 cells; [8]): 0.72 ± 0.06 mM; IC50 (HepG2 cells; [8]): 1.01 ± 0.03 mM; IC50 (PANC-1 cells; [8]): 1.47 ± 0.07 mM
Nc1ccccc1C(=O)CC(N)C(=O)O (centres unmarked) [Kynurenine, kynurenine] | 2.79 ± 0.05 | 2.02 ± 0.05 | 1.78 ± 0.18 | 2.46 ± 0.05 | 1.93 ± 0.03 | 2.63 ± 0.04 | ≥ 1000 | 
N[C@@H](Cc1c[nH]c2ccccc12)C(=O)O [Tryptophan] | 0.76 ± 0.03 | 1.89 ± 0.13 | 6.51 ± 0.29 | 1.5 ± 0.15 | 1.54 ± 0.04 | 4.54 ± 0.19 |  | IC50 (PC-3 and LNCaP cells; LNCaP): 1900 to 6500 µM; IC50 [2]: 1500 to 4500 µM
NCCc1ccc(O)cc1 [Tyramine, reference compound] | 2.99 ± 0.08 | 1.53 ± 0.04 | 1.71 ± 0.12 | 3.18 ± 0.24 | 1.53 ± 0.05 | 0.77 ± 0.04 |  | 
O=C(O)c1cc(=O)c2ccccc2[nH]1 [KYNA, kynurenic acid] | 4.39 ± 0.1 | 8.76 ± 1.18 | 9.74 ± 1.3 |  |  |  |  | IC50 (PC-3 and LNCaP cells; PC-3 and LNCaP): > 5000 µM; IC50 [1, 10]: > 3000 µM; effect on DU145 and PC3 cells [3]: scarce or no effect
NCCc1c[nH]c2ccc(O)cc12 [5-HT, 5-hydroxytryptamine] | 1.66 ± 0.01 | 1.07 ± 0.03 | 1.12 ± 0.04 | 1.89 ± 0.09 | 1.05 ± 0.17 | 1.34 ± 0.13 | ≥ 1000 | tumor weight increase (ovarian cancer): ~60%
c1ccc2[nH]ccc2c1 [Indole] | 0.9 ± 0.06 | 0.7 ± 0.02 | 0.98 ± 0.02 |  |  |  |  | 
N[C@@H](Cc1c[nH]c2ccc(O)cc12)C(=O)O [5-HTP, 5-hydroxytryptophan] | 0.85 ± 0.05 | 0.99 ± 0.04 | 1.8 ± 0.17 |  |  |  |  | 
O=C(O)c1ccccn1 [Picolinic acid] | 1.48 ± 0.06 | 4.95 ± 0.19 | 5.75 |  |  |  |  | 
COc1ccc2[nH]cc(CCNC(C)=O)c2c1 [Melatonin] | 1.47 ± 0.1 | 1.28 ± 0.06 | 1.25 ± 0.12 | 2.31 ± 0.06 | 1.48 ± 0.1 | 2.02 ± 0.09 | ≥ 1000 | 
Nc1c(O)cccc1C(=O)O [3-HAA, 3-hydroxyanthranilic acid] | 0.38 ± 0.01 | 0.9 ± 0.04 | 0.65 ± 0.06 | 0.27 ± 0.01 | 0.42 ± 0.02 | 0.41 ± 0.01 | ≤ 900 | Effect on proliferation of RWPE-1 cells (RWPE-1 cells; concentrations between 0.03 and 0.1 mM): promoted the proliferation; tumor size (PC-3 xenograft tumors; intraperitoneal administration): No difference in tumor size; tumor size (PC-3 xenograft tumors; intratumoral administration): No difference in tumor size
Nc1c(C(=O)O)c2nc3c(C(=O)O)cccc3oc-2cc1=O [CA, cinnabarinic acid] | 0.4 ± 0.01 | 0.17 ± 0.01 | 0.24 ± 0.01 | 0.21 ± 0.01 | 0.1 ± 0.01 | 0.25 ± 0.04 | ≤ 900 | 
O=C(O)c1cccnc1C(=O)O [QA, quinolinic acid] | 3.2 ± 0.16 | 6 ± 1.32 | 6.83 ± 0.42 |  |  |  |  | IC50 (PC-3 and LNCaP cells; PC-3 and LNCaP): > 5000 µM; IC50 [1, 10]: > 3000 µM
